The target in one experiment is T1, human TrkB receptor (Homo sapiens, UniProt Q16620).
T1 construct: expressed in transfected cells
Kind of experiment: KIRA-ELISA (TrkB tyrosine phosphorylation) in TetOn-rhTrkB CHO cells. Type of experiment: cell-based. As to conditions: TetOn-rhTrkB cells, with or without 4 nM BDNF. An excerpt:
The human recombinant TrkB receptor was fluorescently tagged at its C-terminus with the Enhanced cyan fluorescent protein (rhTrkB-ECFP) by cloning the full human TrkB sequence (kindly provided by G. M. Brodeur) into the pECFP-N1 expression vector (Clontech). For inducible expression, rhTrkB-ECFP was subcloned into the tetracycline-responsive (TetOn) vector pTRE2 (Clontech). Chinese Hamster Ovary cells stably expressing rhTrkB-ECFP (TetOn-rhTrkB cells), were produced by transfection of the pTRE2-rhTrkB-ECFP plasmid into CHO-K1 TetOn cells (Clontech) followed by clone selection in 0.25 mg/ml hygromycin B (Invitrogen) and 0.1 mg/ml geneticin (G418; Invitrogen). Resistant cells were selected based on both fluorescence intensity and KIRA-ELISA profile after an overnight incubation in presence of 1000 ng/ml doxycycline (Clontech). Cortical neurons were prepared and cultured from E16 mouse embryos as described previously. The nnr5 PC12-TrkA, nnr5 PC12-TrkB and nnr5 PC12-TrkC cells (kindly provided by M. V. Chao) are NGF non-responding mutant PC12 cells stably transfected with TrkA, TrkB and TrkC cDNA, respectively.
TrkB activity was quantified using the previously described KIRA-ELISA assay with slight modifications. Cortical neurons were seeded on polyornithin-coated flat-bottom 96-well culture plates (12×10^4 cells per well) and cultured eight days at 37°C in 5% CO2. TetOn-rhTrkB cells were seeded on flat-bottom 96-well culture plates (4×10^4 cells per well) and incubated overnight with 1000 ng/ml doxycycline (Figs. S1,S2) except when indicated. Fluorescence levels in TetOn-rhTrkB cells were verified before each assay. […] Assay was stopped by removing the medium on ice and membranes were solubilized using KIRA-ELISA solubilization buffer (NaCl 150 mM, Hepes 50 mM, Triton X-100 0.5%, thimerosal 0.01%, sodium orthovanadate 2 mM, supplemented with a cocktail of protease inhibitors) for 1 h at room temperature. Solubilized membranes were transferred for 2 h at room temperature onto ELISA microtiter plate (Nunc Maxisorp) pre-coated overnight at 4°C with appropriate antibodies [polyclonal anti-GFP (1∶5000, Clontech) for TetOn-rhTrkB, polyclonal anti-TrkB (1 µg/ml, Upstate) for cultured neurons and brain slices, for phosphorylation assays; monoclonal anti-GFP (1∶3000, Chemicon) for TetOn-rhTrkB, monoclonal anti-TrkB (1∶1000, BD Biosciences) for cultured neurons and brain slices, for total TrkB quantification]. […] Absorbance was read at 450 nm after addition of 3,3′,5′,5-tetramethyl-benzidine substrate (Sigma) and acidification with 1N hydrochloric acid.
Concentration-response and competition curves were obtained using an iterative least-squares method derived from that of Parker & Waud (1971). […] Concentration-response curves and Eadie-Hofstee plots were analyzed using two-way ANOVA. Significance over time in locomotor activity studies was given using two-way ANOVA followed by Bonferroni's post-hoc test. […] One-way ANOVA followed by post-hoc Dunnett's test was used to evaluate statistical significance compare to saline group in EPM and FST procedures. n represents the number of independent experiments.
In general terms: In an ELISA, binding on a coated surface is turned into a signal by an enzyme label.

The subject of the next experiment is mice. Kind of experiment: Elevated plus-maze (EPM). It is filed as in vivo, mouse. The note with it: vs saline. How it is done:
Mice were treated as described above before being subjected to behavioral studies. Predictive estimation for anxiolytic properties of tat-cyclotraxin-B was assessed using open field and elevated plus-maze (EPM). Antidepressant-like action of tat-cyclotraxin-B was assessed with the forced-swim test (FST). Effects of acute treatment with tat-cyclotraxin-B on spontaneous locomotion, exploration and reactivity to a novel open field was assessed in plexiglas activity chambers (Med Associates; 45×45×31 cm). Mice were placed into the center of the open field, and activity was recorded for 30 min. Testing took place under bright ambient light conditions to increase the anxiety component of the center areas of the field (defined as the central 15×15 cm portion). Mice subjected to EPM received a double 90-interval i.v. injection of tat-cyclotraxin-B or saline buffer before being placed on the platform of the EPM and assessed for 5 min (26×5×36 cm). The diazepam control group consisted of saline buffer double-treated mice that further received a 30-min i.p. injection of diazepam (1 mg/kg). Mice were assessed for number of entries and amount of time spent in open versus closed arms. The FST procedure was applied to treated mice as described by Porsolt et al. (see ref. [60]). Mice were dropped individually into glass cylinder (height, 25 cm; diameter, 10 cm) containing 10 cm water height, maintained at 23–25°C. Animals were tested for a total of 6 min. The total time of swimming, the number of climbing attempts and the time of immobility was recorded during the last 4 min of the session, after 2 min of habituation. The paroxetine control group consisted of saline buffer double-treated mice that further received a 30-min i.p. injection of paroxetine (2 mg/kg). Behaviors were recorded on videotape and scored blind.

T1 sequence (Q16620 32-822): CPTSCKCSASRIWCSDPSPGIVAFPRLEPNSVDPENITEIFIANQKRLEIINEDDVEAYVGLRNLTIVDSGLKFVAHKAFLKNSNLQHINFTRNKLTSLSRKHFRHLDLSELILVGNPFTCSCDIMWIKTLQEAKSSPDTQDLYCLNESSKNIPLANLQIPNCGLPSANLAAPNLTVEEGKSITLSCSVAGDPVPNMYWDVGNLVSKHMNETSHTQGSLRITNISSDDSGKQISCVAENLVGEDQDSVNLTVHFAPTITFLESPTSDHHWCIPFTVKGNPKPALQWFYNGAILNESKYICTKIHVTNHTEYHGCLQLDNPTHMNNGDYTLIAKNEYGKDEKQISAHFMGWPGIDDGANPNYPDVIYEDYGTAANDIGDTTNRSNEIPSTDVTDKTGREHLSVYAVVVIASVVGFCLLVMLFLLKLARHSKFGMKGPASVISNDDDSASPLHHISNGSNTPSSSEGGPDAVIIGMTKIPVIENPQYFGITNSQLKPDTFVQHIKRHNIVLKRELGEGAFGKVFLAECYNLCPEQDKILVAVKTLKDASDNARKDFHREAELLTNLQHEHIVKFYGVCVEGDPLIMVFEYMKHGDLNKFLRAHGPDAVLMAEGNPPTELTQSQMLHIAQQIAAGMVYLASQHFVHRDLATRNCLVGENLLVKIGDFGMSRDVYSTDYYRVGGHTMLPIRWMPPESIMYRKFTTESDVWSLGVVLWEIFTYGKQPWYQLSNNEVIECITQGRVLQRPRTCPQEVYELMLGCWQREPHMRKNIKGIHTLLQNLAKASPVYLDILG

Consider “YGRKKRRQRRRCNPMGYTKEGC [tat-cyclotraxin-B]”, for which the “TrkB inhibition compared with cyclotraxin-B” value with human TrkB receptor is “similarly to cyclotraxin-B”. Moreover, in the experiment on mice, the “EPM number of entries in open arms” value is “significantly increased” and the “EPM time spent in open arms” value is reported as “significantly increased”.

These data come from paper PMC2841647 (PLoS ONE, 2010).
